Reference: patent US12622938B2 (priority 2020, dated 2026)
In brackets after ≈: the same amount, converted by molar mass.

Tests used:
Vaccinia virus = test: microbe, parasite or virus in culture; format: cell-based
Flu B Malaysia/2506/2004 [1] = test: Flu B Malaysia/2506/2004, Neutral Red assay, MDCK; format: cell-based; conditions: control compound
Flu B Shanghai/361/02 [2] = test: Flu B Shanghai/361/02, Visual assay, MDCK; format: cell-based
Flu B Shanghai/361/02 [3] = test: Flu B Shanghai/361/02, Neutral Red assay, MDCK; format: cell-based; conditions: control compound, read-out: CTRL IC50
[4] = tested on: Flu A (H5N1) Vietnam/1203/2004H; test: microbe, parasite or virus in culture; format: cell-based
Flu B Malaysia/2506/2004 [5] = test: Flu B Malaysia/2506/2004, Visual assay, MDCK; format: cell-based
HFF cells = conditions: human

C=C(CC[C@@H](C(=O)O)[C@H]1C[C@H](O)[C@@]2(C)C3=C(CC[C@]12C)[C@@]1(C)CC[C@H](O)C(C)(C)[C@@H]1CC3)C(C)C [Sulphurenic acid]
Viral Inhibition Rate (Vaccinia virus; 3.7 μg/mL): 36% | Viral Inhibition Rate (Vaccinia virus; 11 μg/mL): 51% | Viral Inhibition Rate (Vaccinia virus; 33 μg/mL): 58%

Nc1ccn(C[C@@H](CO)OCP(=O)(O)O)c(=O)n1 [Cidofovir]
inhibition at 0.56 µg/mL (Vaccinia virus; Orthopoxvirus vaccinia, HFF, 0.56 μg/mL, read-out: Viral Inhibition Rate): 11% | inhibition at 1.67 µg/mL (Vaccinia virus; Orthopoxvirus vaccinia, HFF, 1.67 μg/mL, read-out: Viral Inhibition Rate): 53%

C=C(CC[C@@H](C(=O)O)[C@H]1C[C@H](O)[C@@]2(C)C3=CC[C@H]4C(C)(C)[C@@H](O)CC[C@]4(C)C3=CC[C@]12C)C(C)C [Dehydrosulphurenic Acid]
Viral Inhibition Rate (Vaccinia virus; 11 μg/mL): 16% | Viral Inhibition Rate (Vaccinia virus; 33 μg/mL): 58%

NC(=O)c1ncn([C@@H]2O[C@H](CO)[C@@H](O)[C@H]2O)n1 [Ribavirin]
CTRL EC50 (Flu B Malaysia/2506/2004 [1]): 10 µg/mL | IC50 (Flu B Malaysia/2506/2004 [1]; read-out: CTRL IC50): > 320 µg/mL | CTRL SI (Flu B Shanghai/361/02 [2]; control compound, Flu B Shanghai/361/02, Visual): >160 | EC50 (Flu B Shanghai/361/02 [2]; read-out: CTRL EC50): 2 µg/mL (≈ 8.19 µM) | IC50 (Flu B Shanghai/361/02 [2]; read-out: CTRL IC50): > 320 µg/mL | IC50 (Flu B Shanghai/361/02 [3]): > 320 µg/mL | CTRL SI [4]: >46 | IC50 ([4]; Influenza A virus, H5N1, MDCK, read-out: CTRL IC50): > 320 µg/mL | CTRL EC50 (Flu B Malaysia/2506/2004 [5]; control compound, Flu B Malaysia/2506/2004, Visual): 3 µg/mL | IC50 (Flu B Malaysia/2506/2004 [5]; read-out: CTRL IC50): > 320 µg/mL

CCO [ethanol]
CC50 (HFF cells): 7%

C=C(CC[C@@H](C(=O)O)[C@H]1CC[C@@]2(C)C3=C(CC[C@]12C)[C@@]1(C)CC[C@H](O)C(C)(C)[C@@H]1CC3)C(C)C [Eburicoic Acid]
inhibition at 11 µg/mL (Vaccinia virus; Orthopoxvirus vaccinia, HFF, 11 μg/mL, read-out: Viral Inhibition Rate): 27% | inhibition at 33 µg/mL (Vaccinia virus; Orthopoxvirus vaccinia, HFF, 33 μg/mL, read-out: Viral Inhibition Rate): 29% | inhibition at 100 µg/mL (Vaccinia virus; Orthopoxvirus vaccinia, HFF, 100 μg/mL, read-out: Viral Inhibition Rate): 55%
